# Entries after “also recorded” stand apart in the source; their conditions may differ.
# Test system: c-Fos
# Assay: Quantification of c-Fos+ cells in the brain after LPS administration
# Type: in vivo, mouse
# Experimental: Animals were transcardially perfused with cold PFA (4% in PBS). Brains were kept in PFA overnight at 4° C. prior to vibratome sectioning (Leica VT1000s®). Brains were cut at 50 μm thickness for cFos quantification. Brains were cut at 100 μm thickness for all other experiments.
# Prior to antibody labeling, sections were incubated in blocking solution (0.4% Triton X-100 and 2% goat serum in PBS) for 30 min. Sections were then incubated in blocking solution containing primary antibodies overnight at room temperature. Primary antibodies used were chicken anti-GFP (1:1000, Ab5450, Abcam®), rabbit anti-cFos (1:500, ABE457, Millipore®), rabbit anti-DsRed (1:1000, 632496, Clontech®). Sections were washed in wash buffer (0.4% Triton X-100 in PBS) three times before secondary antibody labeling. Sections were incubated in blocking solution containing secondary antibodies and DAPI (1:5000, D1306, Thermofisher™) for three hours at room temperature. Images of stained slices were acquired using a confocal microscope (LSM710, Carl Zeiss®) with a 10× or 20× objective lens.
# Adult male mice were sacrificed five hours after LPS injection. c-Fos+ cells were quantified using the Cell Counter plugin in Fiji^25. All cells were counted within a single coronal section of each respective brain region as defined by the Paxinos and Franklin Mouse Atlas^26. Regions quantified include mPFC (Including only PrL and IL) (AP+1.98), S1DZ (AP-0.48), S1BF (AP-0.48), M1 (AP-0.46), M2 (AP-0.46), AuD (AP-1.94), CeA (AP-1.94), and V1 (AP-3.64). Somatosensory cortex dysgranular zone (S1DZ), somatosensory cortex barrel field (S1BF), secondary motor cortex (M2), primary motor cortex (M1), secondary auditory cortex dorsal part (AuD), central amygdala (CeA), medial prefrontal cortex (mPFC), prelimbic cortex (PrL), infralimbic cortex (IL), primary visual cortex (V1).
# Adult male mice were sacrificed five hours after LPS injection. c-Fos^+ cells were quantified using the Cell Counter plugin in Fiji^28. All cells were counted within a single coronal section of each respective brain region as defined by the Paxinos and Franklin Mouse Atlas^29. Regions quantified include mPFC (PrL and IL) (AP+1.98), S1DZ (AP-0.46), S1BF (AP-0.46), M1 (AP-0.46), M2 (AP-0.46), AuD (AP-1.94), CeA (AP-1.94), and V1 (AP-3.64). Medial prefrontal cortex (mPFC), prelimbic cortex (PrL), infralimbic cortex (IL), primary somatosensory cortex dysgranular zone (S1DZ), primary somatosensory cortex barrel field (S1BF), primary motor cortex (M1), secondary motor cortex (M2), secondary auditory cortex dorsal part (AuD), central amygdala (CeA), primary visual cortex (V1). […]
substance,measurement,setting,value
lipopolysaccharide [LPS],number of c-Fos+ S1DZ neurons,"LPS-treated MIA offspring, five hours after LPS",indistinguishable from that of PBS offspring; also recorded: reduced to levels of control offspring
same,number of c-Fos-expressing neurons in the central amygdala (CeA),"MIA offspring, LPS",increased
same,number of c-Fos-expressing neurons in other cortical regions,"MIA offspring, LPS, S1BF, M1, M2, mPFC, AuD, V1",remained unchanged; also recorded: does not have a distinguishable effect on c-Fos expression in other cortical regions analyzed
same,number of S1DZ c-Fos+ neurons,"monogenic mutant mice (Cntnap2, Fmr1, Shank3), LPS",failed to reduce the number of S1DZ c-Fos^+ neurons in monogenic mutant mice

# From US20220072101A1, “HARNESSING INFLAMMATION TO TREAT NEURODEVELOPMENTAL DISORDERS” (President and Fellows of Harvard College, priority 2019, published 2022)
